Experimental data: paper PMC8116058, “De novo macrocyclic peptides dissect energy coupling of a heterodimeric ABC transporter by multimode allosteric inhibition” (eLife, 2021)
Positions of bridges follow the written chain, without caps; N, C: chain ends. Non-standard residues stand in square brackets, D forms with d. Residues, ends and D or L forms follow the SMILES beside them. *: point of attachment. 5FAM = O=C1OC2(c3ccc(O)cc3Oc3cc(O)ccc32)c2ccc(C(=O)*)cc21; βAla = NCCC(=O)O

Key:
TmrAB = experiment: ATP binding by scintillation proximity assay (SPA); set-up: species or system Thermus thermophilus; conditions: CP^B 1 µM; for Effect on ATP binding to TmrAB: SPA; for Signal, ATP binding: TmrAB 0.2 µM on SPA beads, ATP 3 µM traced with 3H-ATP, 30 min on ice, without CP 5.06; for Signal, Background: after release of TmrAB from beads with imidazole 200 mM
From the text: To elucidate the mechanistic basis for the inhibition of ATP hydrolysis and substrate transport, we investigated the effects of CPs on substrate binding. In the first approach, fluorescent CP^Fs were used as reporters in fluorescence polarization. […] In addition, we examined the impact of CP^Bs on ATP binding to TmrAB by scintillation proximity assays (SPA) (Figure 4C). […] Taken together, CPs are high-affinity allosteric inhibitors of TmrAB that leave ATP binding and substrate interaction largely unaffected, while impairing ATP hydrolysis and substrate translocation across the membrane.
Figure 4. […] (A) CP^Fs binding TmrAB is not affected by substrate peptide binding. […] For competition, C4^ATTO655 peptide (2 µM) or R9LQK peptide (200 µM) were added. (B) Binding of C4F peptide is not affected by CP^Bs. C4F peptides (50 nM) were mixed with TmrAB (4 µM), and fluorescence anisotropy was monitored as described in (A). For competition, C4^ATTO655 (10 µM) or CP^Bs (6 µM) were added. […] TmrAB (0.2 µM) were immobilized on SPA beads and incubated with ATP (3 μM, traced with ^3H-ATP) in the presence and absence of CP^Bs (1 µM each) for 30 min on ice. ATP binding was monitored by SPA. Background values were determined after releasing TmrAB complexes from the beads by adding imidazole (200 mM). The background signal in the absence of CP^Bs was set to 0 cpm. […] As this is an equilibrium experiment, this can be rationalized by the fact that CP13 stabilizes the ATP-bound OF conformer. Figure 4—source data 1. Source data for Figure 4.
DDM-solubilized TmrAB (0.2 µM) was incubated with ATP (2.8 μM), [2,5’,8-^3H(N)]-ATP (0.2 µM, ^3H-ATP, PerkinElmer), MgCl2 (3 mM), and CP^Bs (1 µM) for 30 min on ice. Copper-chelated SPA beads (PerkinElmer) were added to a final concentration of 5 mg/ml. Total binding was determined at 20°C in cpm mode (Wallac MicroBeta). Bound TmrAB complexes were eluted by adding 200 mM of imidazole, and background binding was determined. Data represent mean ± SD from three experiments.

[1] = tested on: wild-type TmrAB in liposomes; experiment: Single-liposome flow cytometry transport assay; format: biochemical, Thermus thermophilus; conditions: for Peptide transport in two successive IF-to-OF cycles: 5 min 45°C / 60 min 4°C, repeated; for Transported C4^ATTO655, Peptides/liposome: TmrAB 0.4 µM, ATP 3 mM, ATP without CP 84.57, ADP 3.52; for Transported C4^ATTO655, Peptides/liposome / Peptides/liposome, time course / Mean fluorescence intensity * 10^3, time course: C4^ATTO655 1 µM; for Peptides/liposome, two consecutive transport cycles: ADP background corrected; for Peptides/liposome, time course: corrected by ADP background
Procedure: To investigate whether an IF-to-OF transition and conformational arrest by CP13^F or CP14^F can still result in a productive substrate translocation, we followed peptide transport by wild-type TmrAB by single liposome-based flow cytometry (Figure 6A). […] CPs block multiple-turnover transport monitored by quantitative flow cytometry. (A) Single turnover by IF-to-OF switch monitored by single-liposome flow cytometry. […] Transport reactions were stopped by the addition of EDTA (10 mM). 100,000 proteoliposomes were analyzed by flow cytometry monitoring fluorescein and ATTO655 intensities. […] (C, D) Slowdown of multiple-turnover substrate transport. […] Transported peptides per liposomes were evaluated and corrected by ADP background levels as described in (B). Transport kinetics were fitted monoexponentially. […] (E) Two consecutive transport cycles. […] Transported peptides per liposome were evaluated as described in (B) and corrected by background levels in the presence of ADP. […] Figure 6-source data 1. Source data for Figure 6. Figure 6-figure supplement 1. Linear regression of quantitative flow cytometry analysis. (A) Gating strategy. Liposomes were selected according to side and forward scatter areas. Single liposomes were gated based on the height of forward scatter correlated to the area of forward scatter. […] Detergent was removed, and liposomes were extensively washed by centrifugation. […] Equal concentrations of fluorescein served as loading control (right). (C) Linear regression. […] Mean values ± SD (n = 3) are shown. Figure 6-figure supplement 1-source data 1. Source Data for Figure 6-figure supplement 1. [drawing 5] […] To confirm the conformational arrest of wild-type TmrAB by CP13^F and the slow turnover in the presence of CP14^F, we examined two successive cycles of conformational transitions by flow cytometry. […] Both steps were repeated to yield two consecutive cycles of conformational transitions. […] Taken together, the macrocyclic peptides CP13 and CP14 stabilize a pre-hydrolysis state, thus allowing a single-turnover translocation along the IF-to-OF switch. […] Transport reactions were stopped by adding EDTA (10 mM). […] For regression analysis, liposomes were loaded with increasing amounts of peptides to convert the fluorescence intensities into the number of peptides per liposome ([Stefan et al., 2020]). […] Equal amounts of carboxyfluorescein (Sigma-Aldrich) served as loading control. Detergent was removed by adding SM-2 Bio-beads (Bio-Rad) as detailed above. Liposomes were harvested for 30 min at 270,000 g and washed three times by centrifugation. Generally, 20,000-100,000 proteoliposomes were selected according to sideward and forward scatter areas. Single events were selected based on the height of forward scatter plotted against the area of forward scatter. […] Data represent mean ± SD from three experiments.

[2] = time 5 min (after first 5 min at 45°C)
[3] = time 65 min (after 60 min at 4°C)
[4] = time 70 min (after second 5 min at 45°C)
[5] = time 130 min (after second 60 min at 4°C)

SMILES	Effect on ATP binding to TmrAB (TmrAB)	Signal, ATP binding (TmrAB)	Signal, Background (TmrAB)	Peptide transport in two successive IF-to-OF cycles [1]	Effect on C4^ATTO655 peptide translocation ([1]; CP^F 1 µM, 5 min 45°C)	Transported C4^ATTO655, Peptides/liposome ([1]; CP^F 1 µM, 5 min 45°C)	Peptides/liposome, two consecutive transport cycles ([1]; time 0 min)	Peptides/liposome, two consecutive transport cycles [1, 2]	Peptides/liposome, two consecutive transport cycles [1, 3]	Peptides/liposome, two consecutive transport cycles [1, 4]	Peptides/liposome, two consecutive transport cycles [1, 5]	also measured
CC[C@H](C)[C@@H]1NC(=O)[C@H]([C@@H](C)O)NC(=O)[C@H](CC(C)C)NC(=O)[C@H](Cc2c[nH]c3ccccc23)NC(=O)[C@H](Cc2ccccc2)NC(=O)[C@H](CC(N)=O)NC(=O)[C@H](CCC(=O)O)NC(=O)[C@H](CC(C)C)NC(=O)[C@H](CS)NC(=O)[C@H](Cc2c[nH]cn2)NC(=O)[C@H](CO)NC(=O)[C@@H](Cc2ccc(O)cc2)NC(=O)CSC[C@@H](C(=O)NCC(=O)N[C@@H](CO)C(=O)NCCC(=O)NCCC(=O)N[C@@H](CCCNC(=N)N)C(=O)N[C@@H](CCCCNC(=O)c2ccc3c(c2)C(=O)OC32c3ccc(O)cc3Oc3cc(O)ccc32)C(N)=O)NC(=O)[C@H](CC(C)C)NC1=O [CP6] ({CH2CO}-[dY]SHCLENFWLTILCGS[βAla][βAla]RK(5FAM)-NH2; thioether N-14)	only minor effects on ATP binding	4.22 cpm*10^3	-0.04 cpm*10^3	peptide translocation was completely abrogated	completely prevented C4^ATTO655 peptide translocation	4.74 Peptides/liposome	0.00 Peptides/liposome	0.17 Peptides/liposome	0.01 Peptides/liposome	1.93 Peptides/liposome	1.54 Peptides/liposome	
CC(C)C[C@@H]1NC(=O)[C@H](Cc2ccccc2)NC(=O)CNC(=O)[C@H](CO)NC(=O)[C@H](Cc2ccccc2)NC(=O)[C@H](CC(=O)O)NC(=O)[C@@H]2CCCN2C(=O)[C@H]([C@@H](C)O)NC(=O)[C@@H](Cc2ccc(O)cc2)NC(=O)CSC[C@@H](C(=O)NCC(=O)N[C@@H](CO)C(=O)NCCC(=O)NCCC(=O)N[C@@H](CCCNC(=N)N)C(=O)N[C@@H](CCCCNC(=O)c2ccc3c(c2)C(=O)OC32c3ccc(O)cc3Oc3cc(O)ccc32)C(N)=O)NC(=O)[C@H](C)NC(=O)[C@H](CC(N)=O)NC(=O)[C@H](CCCNC(=N)N)NC(=O)[C@H](CC(C)C)NC(=O)[C@H](Cc2ccccc2)NC(=O)[C@H](C)NC1=O [CP12] ({CH2CO}-[dY]TPDFSGFLAFLRNACGS[βAla][βAla]RK(5FAM)-NH2; thioether N-16)	no effect on ATP binding	5.02 cpm*10^3	0.08 cpm*10^3	peptide translocation was completely abrogated	completely prevented C4^ATTO655 peptide translocation	4.93 Peptides/liposome	0.00 Peptides/liposome	1.11 Peptides/liposome	1.17 Peptides/liposome	1.70 Peptides/liposome	1.01 Peptides/liposome	
CC[C@H](C)[C@@H]1NC(=O)[C@H](Cc2c[nH]c3ccccc23)NC(=O)[C@H](CC(N)=O)NC(=O)[C@H](C)NC(=O)[C@H](CO)NC(=O)[C@@H]2CCCN2C(=O)[C@H](CC(=O)O)NC(=O)[C@@H](Cc2ccc(O)cc2)NC(=O)CSC[C@@H](C(=O)NCC(=O)N[C@@H](CO)C(=O)NCCC(=O)NCCC(=O)N[C@@H](CCCNC(=N)N)C(=O)N[C@@H](CCCCNC(=O)c2ccc3c(c2)C(=O)OC32c3ccc(O)cc3Oc3cc(O)ccc32)C(N)=O)NC(=O)[C@H]([C@@H](C)O)NC(=O)[C@H](CC(C)C)NC(=O)[C@H](CC(C)C)NC(=O)[C@H](C(C)C)NC(=O)[C@H](CC(C)C)NC1=O [CP13] ({CH2CO}-[dY]DPSANWILVLLTCGS[βAla][βAla]RK(5FAM)-NH2; thioether N-14; C-terminus assumed)	value of bound ATP exceeds the control without CPs	6.33 cpm*10^3	0.19 cpm*10^3	peptide transport was exclusively observed along the first IF-to-OF switch		13.69 Peptides/liposome	0.00 Peptides/liposome	9.32 Peptides/liposome	10.24 Peptides/liposome	10.66 Peptides/liposome	11.66 Peptides/liposome	Effect on ATP binding to TmrAB (TmrAB; listed as CP13^B): only minor effects on ATP binding; Peptides/liposome, time course ([1]; 1 min at 45°C, CP^F 1 µM): -0.42 Peptides/liposome; Mean fluorescence intensity * 10^3, time course ([1]; 1 min at 45°C, CP^F 1 µM, without CP 2.29): -0.03 * 10^3; Peptides/liposome, time course ([1]; 3 min at 45°C, CP^F 1 µM): 2.53 Peptides/liposome; Mean fluorescence intensity * 10^3, time course ([1]; 3 min at 45°C, CP^F 1 µM, without CP 10.49): 0.17 * 10^3; Peptides/liposome, time course ([1]; 5 min at 45°C, CP^F 1 µM): 3.33 Peptides/liposome; Mean fluorescence intensity * 10^3, time course ([1]; 5 min at 45°C, CP^F 1 µM, without CP 18.11): 0.23 * 10^3; Peptides/liposome, time course ([1]; 10 min at 45°C, CP^F 1 µM): 5.08 Peptides/liposome; Mean fluorescence intensity * 10^3, time course ([1]; 10 min at 45°C, CP^F 1 µM, without CP 30.27): 0.35 * 10^3; Peptides/liposome, time course ([1]; 20 min at 45°C, CP^F 1 µM): 4.95 Peptides/liposome; Mean fluorescence intensity * 10^3, time course ([1]; 20 min at 45°C, CP^F 1 µM, without CP 40.72): 0.34 * 10^3; Peptides/liposome, time course ([1]; 40 min at 45°C, CP^F 1 µM): 5.22 Peptides/liposome; Mean fluorescence intensity * 10^3, time course ([1]; 40 min at 45°C, CP^F 1 µM, without CP 51.44): 0.36 * 10^3; C4^ATTO655 peptides per liposome transported along a single IF-to-OF switch ([1]; CP^F 1 µM, 5 min 45°C, ~30 transport-competent TmrAB per liposome): approx. 10 peptides per liposome; Peptide transport rate compared to control without CP^Fs ([1]; period of 40 min at 45°C): drastically reduced the peptide transport rate; Turnover of wild-type TmrAB over long-term incubation ([1]; period of 40 min at 45°C): a single turnover driving peptide transport was observed; Period of conformational arrest of wild-type TmrAB ([1]; two consecutive cycles): 2 h
